Experimental findings from paper PMC7770183, “Enhanced Bioavailability of Boswellic Acid by Piper longum: A Computational and Pharmacokinetic Study” (Frontiers in Pharmacology, 2020) are described below.

Read-outs that look alike come from different tables or passages of the source.

As a reminder, the AUC(0-t) is the area under the concentration-time curve up to a stated or last time point. For orientation: AUC(0-inf) means the area under the concentration-time curve extrapolated to infinity. Usually Cmax stands for the highest concentration seen after dosing. A word on the Tmax: it is the time at which the peak concentration occurs.

This data set can be described thus: Pharmacokinetic study of β-boswellic acid in rabbits with and without Piper longum extract (serum, HPLC-UV). The data set is classed as in vivo. Conditions: for AUC(0-t) / AUC(0-inf) / Cmax / Tmax / Vd/F / k el: male, rabbit, serum, po; for AUC(0-t): oral capsule; for Vd/F: read-out: Apparent volume of distribution (Vd/F); for k el: read-out: Ke (converted).
[1] abbreviates: 20 mg, oral, Control: 20 mg of BA alone.
Where [2] appears, read: Test I: 20 mg of BA + 2.5 mg of PL.
[3] abbreviates: Test II: 20 mg of BA + 10 mg of PL.

As to `C[C@H]1[C@H](C)CC[C@]2(C)CC[C@]3(C)C(=CC[C@@H]4[C@@]5(C)CC[C@@H](O)[C@](C)(C(=O)O)[C@@H]5CC[C@]43C)[C@H]12` [β-boswellic acid, 3α-hydroxyurs-12-en-24-oic acid], the AUC(0-t) by setting is: (20 mg, Control: 20 mg of β-boswellic acid (BA) alone) 766 ± 22.8 ng·h/mL; (Test I: 20 mg of BA + 2.5 mg of adjuvant (PL)) 1890 ± 109 ng·h/mL; (Test II: 20 mg of BA + 10 mg of adjuvant (PL)) 2210 ± 115 ng·h/mL. Moreover, the AUC(0-inf) runs as follows: under setting [1], 772 ± 22.1 ng·h/mL; under setting [2], 2660 ± 102 ng·h/mL; under setting [3], 2850 ± 251 ng·h/mL. Moreover, the Cmax amounted to 260 ± 21.3 ng/mL under setting [1], 321.4 ± 2.7 ng/mL under setting [2] and 359 ± 12 ng/mL under setting [3]. Further, the Tmax reads like this: under setting [1], 2 ± 0.18 h; under setting [2], 2 ± 0.22 h; under setting [3], 3 ± 0.26 h. The Vd/F by setting is: under setting [1], 96 ± 14 L; under setting [2], 43.2 ± 7 L; under setting [3], 67.5 ± 11 L. Also, the k el is, setting by setting: under setting [1], 0.000131 s⁻¹; under setting [2], 5.24e-05 s⁻¹; under setting [3], 3.07e-05 s⁻¹. Further, the Ka worked out at 0.6168 ± 0.16 h⁻¹ (oral, Control: 20 mg of BA alone); 0.740 ± 0.22 h⁻¹ (oral, Test I: 20 mg of BA + 2.5 mg of PL); 0.6112 ± 0.17 h⁻¹ (oral, Test II: 20 mg of BA + 10 mg of PL). Besides, the “time of complete elimination from serum” value (oral, β-boswellic acid alone) was determined as 9 h.
